Assay results as given in US4129737A, “Process for the preparation of an 8-alkyl-5-oxo-5,8-dihydro-pyrido(2,3-d)pyrimidine-6-carboxylic acid” (priority 1972, dated 1978).
≈ marks a conversion by molar mass, not a printed value. Where two headings read alike, the source gives them in different places.

Key:
B. subtilis 6633 = assay: Average MIC, solid medium (nutrient agar) dilution method; settings: Bacillus subtilis, 6633, 18 h, read-out: minimum inhibitory concentration, average
B. pyocyaneus TUR = assay: Minimum inhibitory concentration by agar dilution, B. pyocyaneus TUR; type: cell-based; settings: Pseudomonas aeruginosa, 37° C., 18 hours
Protocol: (§1) (a) Trypticase soya medium (T.S.A.), which is very suitable for culturing the majority of microorganisms; it has the following composition:
(§2) (b) Ordinarily nutrient agar (N.A.), which is less rich in nutrients, corresponds to the following formulation: […]
(§3) Table I gives the minimum inhibitory concentrations (expressed in μg/cm^3) for the various microorganisms tested on each medium.
(§4) The products were tested on three Gram positive microorganisms (1 to 3) […] and on 10 Gram negative microorganisms (4 to 13).

Esch. coli. LRB 45 = assay: Average MIC, solid medium (nutrient agar) dilution method; settings: Escherichia coli, 18 h, read-out: minimum inhibitory concentration, average
[1] = test system: Gram-negative microorganisms; assay: In vitro anti-microbial activity on agar media, overall; type: cell-based
Protocol: as §4

Streptococcus DM19 = assay: Average MIC, solid medium (nutrient agar) dilution method; settings: DM19, 18 h, read-out: minimum inhibitory concentration, average
[2] = Toxicity, overall statement; settings: in vivo
Salm. typhi = assay: Minimum inhibitory concentration by agar dilution, Salm. typhi; type: cell-based; settings: Salmonella enterica, 18 h
Protocol: as §1, §2, §3, §4
(§5) Table (II) gives the minimum inhibitory concentrations of the compounds of Examples XII to XVI, determined on the agar medium, N.A., and expressed in μg/cm^3.

Bord. bronch. 4617 = assay: Average MIC, solid medium (nutrient agar) dilution method; settings: 18 h, read-out: minimum inhibitory concentration, average
Ps. aeruginosa 72-345 = assay: as above; settings: Pseudomonas aeruginosa, 72345, 18 h, read-out: minimum inhibitory concentration, average
Pr. mirabilis Nig = assay: as above; settings: Proteus mirabilis, 18 h, read-out: minimum inhibitory concentration, average
Esch. coli. LRB 67 = assay: as above; settings: Escherichia coli, 18 h, read-out: minimum inhibitory concentration, average
[3] = Absorption and elimination after oral administration; type: in vivo
Providencia 0223 = assay: Average MIC, solid medium (nutrient agar) dilution method; settings: Providencia, 0223, 18 h, read-out: minimum inhibitory concentration, average
Staphylococcus 209 P = assay: Minimum inhibitory concentration by agar dilution, Staphylococcus 209 P; type: cell-based; settings: Staphylococcus, 37° C., 18 hours, read-out: minimum inhibitory concentration (M.I.C.)
Protocol: as §1, §2, §3, §4, §5

Pr. vulgaris = assay: Minimum inhibitory concentration by agar dilution, Pr. vulgaris; type: cell-based; settings: Proteus vulgaris, 37° C., 18 hours, read-out: minimum inhibitory concentration (M.I.C.)
Protocol: as §1, §2, §3, §4, §5

Klebs. pneumoniae 10.031 = assay: Average MIC, solid medium (nutrient agar) dilution method; settings: Klebsiella pneumoniae, 10.031, 18 h, read-out: minimum inhibitory concentration, average
Salm. typhi 0901 = assay: as above; type: cell-based; settings: Salmonella enterica, 18 h, read-out: minimum inhibitory concentration, average
dog = settings: in vivo, 100 mg/kg/day
Esch. coli. 54-127 OMS = assay: Average MIC, solid medium (nutrient agar) dilution method; settings: Escherichia coli, 18 h, read-out: minimum inhibitory concentration, average
[4] = N.A. (nutrient agar, pH 6.8), Table I
[5] = T.S.A. (trypticase soya medium, pH 7.3)

CCn1cc(C(=O)O)c(=O)c2cnc(N3CCNCC3)nc21 [Example VIII, 2-Piperazino-5-oxo-8-ethyl-5,8-dihydro-pyrido(2,3-d)pyrimidine-6-carboxylicacid]
MIC (B. subtilis 6633): 8.1 µg/mL (≈ 26.7 µM)
MIC (B. pyocyaneus TUR; [4]): 25 µg/mL (≈ 82.4 µM)
MIC (B. pyocyaneus TUR; T.S.A. (trypticase soya medium, pH 7.3), read-out: minimum inhibitory concentration (M.I.C.)): > 100 µg/mL
MIC (Esch. coli. LRB 45): 2.04 µg/mL (≈ 6.73 µM)
activity against Gram-negative microorganisms ([1]; in vitro): particularly active against Gram-negative microorganisms
activity compared with nalidixic acid and the acid of Example III ([1]; majority of the Gram negative microorganisms, Table III): more active on the majority of the Gram negative microorganisms than the 2 other substances
MIC (Streptococcus DM19): 100 µg/mL (≈ 330 µM)
toxicity [2]: very low toxicity
MIC (Salm. typhi; pH 6.8, read-out: minimum inhibitory concentration (M.I.C.)): 6.2 µg/mL (≈ 20.4 µM)
MIC (Salm. typhi; pH 7.3, read-out: minimum inhibitory concentration (M.I.C.)): 1.6 µg/mL (≈ 5.27 µM)
MIC (Bord. bronch. 4617): 75 µg/mL (≈ 247 µM)
MIC (Ps. aeruginosa 72-345): 13.7 µg/mL (≈ 45.3 µM)
MIC (Pr. mirabilis Nig): 1.58 µg/mL (≈ 5.21 µM)
MIC (Esch. coli. LRB 67): 1.2 µg/mL (≈ 3.96 µM)
absorption [3]: absorbed rapidly
elimination [3]: eliminated principally in the urine
urinary concentrations relative to minimum inhibitory concentrations ([3]; even with low doses, majority of Gram negative microorganisms): very much greater than the minimum inhibitory concentrations
MIC (Providencia 0223): 16.2 µg/mL (≈ 53.5 µM)
MIC (Staphylococcus 209 P; [4]): 12.5 µg/mL (≈ 41.2 µM)
MIC (Staphylococcus 209 P; [5]): 12.5 µg/mL (≈ 41.2 µM)
MIC (Pr. vulgaris; [4]): 6.2 µg/mL (≈ 20.4 µM)
MIC (Pr. vulgaris; [5]): 1.6 µg/mL (≈ 5.27 µM)
MIC (Klebs. pneumoniae 10.031): 1.88 µg/mL (≈ 6.2 µM)
MIC (Salm. typhi 0901): 2.06 µg/mL (≈ 6.79 µM)
toxic signs (dog): without showing any toxic signs
MIC (Esch. coli. 54-127 OMS): 5.66 µg/mL (≈ 18.7 µM)
